{"source": "patent US11905231B1", "about": "“Solid forms, salts and polymorphs of anti-fibrotic compounds” (Certa Therapeutics Pty Ltd, priority 2023, dated 2024)", "key": {"[1]": {"assay": "in vivo", "details": "rat, in vivo, po, 20 mg/kg", "procedure": "Bioavailability is determined by the equation AUC=F·D/CLT, wherein AUC is the area under the plot of plasma concentration, F is the absolute bioavailability, D is the dose, and CLT is the total clearance.\nThe rats received a single oral dose of 20 mg/kg body weight (b.w.). The doses were prepared as a 2.0 mg/mL suspension in a vehicle of 20 mM Na2HPO4 buffer containing 5% (v/v) DMSO, 0.4% (v/v) 1M NaOH and 0.4% (v/v) Tween 80 and a dose volume of 10 mL/kg b.w.\nPharmacokinetic analysis was performed on the average plasma concentration for each time point."}, "[2]": {"assay": "Thermogravimetric Analysis (TGA) weight loss", "format": "physicochemical", "details": "for Weight loss (TGA): when heated from about 25° C. to about 120° C. (text)"}, "[3]": {"details": "37° C.", "method": "(§1) The term “FaSSIF media” refers to Fasted State Simulated Intestinal Fluid media prepared using FaSSIF powder and buffer concentrate obtained from the commercial source Biorelevant (London, UK, biorelevant.com). The FaSSIF powder contains sodium taurocholate, lecithin, sodium chloride, monobasic sodium phosphate and sodium hydroxide. The FaSSIF media is prepared as described at https://biorelevant.com/learning_center/what-is-fassif/. Briefly the pH6.5 buffer containing 0.42 g of NaOH, 3.95 g of NaH2PO4·H2O and 6.19 g of NaCl was dissolved in 0.9 L of purified water and the pH of the solution was adjusted to 6.5 using sodium hydroxide 1N or hydrochloric acid 1N and made up to volume (1 L) with purified water at room temperature. Dissolve 2.24 g of the FaSSIF powder in 0.5 L of the pH6.5 buffer, stirring until the powder is completely dissolved, and then make up to volume (1 L) with buffer at room temperature.\n(§2) The samples were stirred using a magnetic stirrer at 37° C. […] The samples were filtered via centrifugation (12,000 rpm, 5 min). The supernatant was diluted (2×) with HPLC grade solvent and analyzed by HPLC.\nHPLC gradient was as follows:\n(§3) The pH 1.2, pH 4.5, and pH 6.8 media were prepared as standard aqueous buffered solutions following USP <39>.\n(§4) As used herein, the term “FaSSIF media” means Fasted Stated Simulated Intestinal Fluid media prepared according to the method known in the art."}, "[4]": {"assay": "physchem", "details": "37 °C, thermodynamic from solid; for solubility at 1 h: 1 h Solubility; for solubility at 24 h: 24 h Solubility", "method": "as §1, §2\nHPLC gradient was as follows:\nas §3, §4"}, "[5]": {"assay": "Stability of the ethanolamine salt under accelerated and long-term storage conditions", "format": "physicochemical", "details": "for API (Purity_) / Total Impurity: HPLC", "procedure": "The samples were assayed by HPLC at the start, after 1 week, and after 2 weeks at the indicated accelerated storage conditions, or after 36 days at room temperature storage. For HPLC analysis, the samples were diluted with 10 mL of TFA/DMSO/ACN (0.1/10/90, v/v/v) to ˜1 mg/mL and analyzed by HPLC.\nThe samples were also analyzed by XRPD at initial, 1 week, 2 weeks and 36 day time points."}, "[6]": {"assay": "Dynamic Vapor Sorption (DVS) hygroscopicity", "details": "at 80% RH, 25° C., measured during 0% RH to 95% RH increase", "from_the_text": "The change in water content is recited as a % change in mass of the starting sample and all such water sorption (DVS) values recited herein will be understood to explicitly include numerical values within a +/−0.2% variance.\nThe humidity is held constant at 30% RH until the mass change of the sample reaches equilibrium, as determined by the rate of change of weight being 0.01%/minute or less. The humidity is then changed to the next step value and the consequent mass change measured, and so on.\nThe hygroscopicity values recited herein refer to total water gain since the start of the experiment only and so may not necessarily be equivalent to the actual total water content of the sample."}, "[7]": {"details": "pH 1.2 aqueous buffer, pH 1.2, simulated gastric fluid, pH 1.2 medium"}, "[8]": {"details": "pH 4.5 aqueous buffer, pH 4.5 medium"}, "[9]": {"details": "40° C., 75% RH, open vial, 1 week"}, "[10]": {"details": "40° C., 75% RH, open vial, 2 weeks"}}, "note": "Counter-ions that a name gives are not always drawn. Like-named read-outs stand apart in the source and are kept apart here."}
{"smiles": "C#CCOc1ccc(/C=C/C(=O)Nc2ccccc2C(=O)O)cc1OC", "note": "[Ethanolamine salt]", "values": [{"measurement": "AUCExtr", "setting": "[1]; Sprague-Dawley", "value": 1.92, "unit": "%"}, {"measurement": "AUCInf", "setting": "[1]; Sprague-Dawley", "value": 405.006, "unit": "µg·h/mL"}, {"measurement": "AUClast", "setting": "[1]; Sprague-Dawley", "value": 396.535, "unit": "µg·h/mL"}, {"measurement": "tmax", "setting": "[1]; Sprague-Dawley", "value": 1.00, "unit": "h"}, {"measurement": "Mean concentration (plasma)", "setting": "[1]; Sprague-Dawley, 0.5 h", "value": 37133, "unit": "ng/mL"}, {"measurement": "Mean concentration (plasma)", "setting": "[1]; Sprague-Dawley, 1 h", "value": 52733, "unit": "ng/mL"}, {"measurement": "Mean concentration (plasma)", "setting": "[1]; Sprague-Dawley, 2 h", "value": 40300, "unit": "ng/mL"}, {"measurement": "Mean concentration (plasma)", "setting": "[1]; Sprague-Dawley, 4 h", "value": 25900, "unit": "ng/mL"}, {"measurement": "Mean concentration (plasma)", "setting": "[1]; Sprague-Dawley, 8 h", "value": 18767, "unit": "ng/mL"}, {"measurement": "Mean concentration (plasma)", "setting": "[1]; Sprague-Dawley, 24 h", "value": 1262, "unit": "ng/mL"}, {"measurement": "half-life", "setting": "[1]; Sprague-Dawley, t1/2", "value": 4.32, "unit": "h"}, {"measurement": "Plasma concentration at 24 h post dose compared to the other tested compounds", "setting": "[1]", "value": "highest plasma concentrations"}, {"measurement": "Weight loss by TGA", "setting": "[2]; from 0° C. to 120° C.", "value": 0.10, "unit": "% from 0 °C to"}, {"measurement": "Weight loss by TGA", "setting": "[2]; from r.t. to 120° C.", "value": 0.10, "unit": "% from r.t. to"}, {"measurement": "Total weight loss by TGA", "setting": "[2]; from r.t. to 350° C. (or to decomposition if lower)", "value": 0.10, "unit": "% total weight"}, {"measurement": "Weight loss (TGA)", "setting": "[2]; listed as ethanolamine", "value": 0.10, "unit": "%"}, {"measurement": "Weight loss (TGA)", "setting": "[2]; listed as ethanolamine salt", "value": "about 0.1%"}, {"measurement": "1 h Solubility", "setting": "[3]; FaSSIF (pH 7.5)", "value": ">7990", "unit": "µg/mL"}, {"measurement": "24 h Solubility", "setting": "[3]; FaSSIF (pH 7.5)", "value": ">7990", "unit": "µg/mL"}, {"measurement": "1 h Solubility", "setting": "[3]; FaSSIF", "value": 238, "unit": "µg/mL"}, {"measurement": "24 h Solubility", "setting": "[3]; FaSSIF", "value": 263, "unit": "µg/mL"}, {"measurement": "1 h Solubility", "setting": "[3]; FeSSIF (pH 7.8)", "value": ">8020", "unit": "µg/mL"}, {"measurement": "24 h Solubility", "setting": "[3]; FeSSIF (pH 7.8)", "value": ">8020", "unit": "µg/mL"}, {"measurement": "1 h Solubility", "setting": "[3]; FeSSIF", "value": 12, "unit": "µg/mL"}, {"measurement": "24 h Solubility", "setting": "[3]; FeSSIF", "value": 25, "unit": "µg/mL"}, {"measurement": "1 h Solubility", "setting": "[3]; pH 6.8 medium", "value": 116, "unit": "µg/mL"}, {"measurement": "solubility at 1 h", "setting": "[4]; [7]", "value": 8, "unit": "µg/mL"}, {"measurement": "solubility at 24 h", "setting": "[4]; [7]", "value": 3, "unit": "µg/mL"}, {"measurement": "solubility at 1 h", "setting": "[4]; [8]", "value": 28, "unit": "µg/mL"}, {"measurement": "solubility at 24 h", "setting": "[4]; [8]", "value": 5, "unit": "µg/mL"}, {"measurement": "solubility at 24 h", "setting": "[4]; pH 6.8 aqueous buffer, pH 6.8 medium", "value": 88, "unit": "µg/mL"}, {"measurement": "Appearance", "setting": "[5]; [9]", "value": "White"}, {"measurement": "API (Purity_)", "setting": "[5]; [9]", "value": 99.73, "unit": "%"}, {"measurement": "Total Impurity", "setting": "[5]; [9]", "value": 0.27, "unit": "%"}, {"measurement": "Appearance", "setting": "[5]; [10]", "value": "White"}, {"measurement": "API (Purity_)", "setting": "[5]; [10]", "value": 99.72, "unit": "%"}, {"measurement": "Total Impurity", "setting": "[5]; [10]", "value": 0.28, "unit": "%"}, {"measurement": "Appearance", "setting": "[5]; 60° C., open vial, 1 week", "value": "White"}, {"measurement": "API (Purity_)", "setting": "[5]; 60° C., open vial, 1 week", "value": 99.73, "unit": "%"}, {"measurement": "Total Impurity", "setting": "[5]; 60° C., open vial, 1 week", "value": 0.27, "unit": "%"}, {"measurement": "Appearance", "setting": "[5]; 60° C., open vial, 2 weeks", "value": "White"}, {"measurement": "API (Purity_)", "setting": "[5]; 60° C., open vial, 2 weeks", "value": 99.71, "unit": "%"}, {"measurement": "Total Impurity", "setting": "[5]; 60° C., open vial, 2 weeks", "value": 0.29, "unit": "%"}, {"measurement": "Appearance", "setting": "[5]; Initial", "value": "White"}, {"measurement": "API (Purity_)", "setting": "[5]; Initial", "value": 99.75, "unit": "%"}, {"measurement": "Total Impurity", "setting": "[5]; Initial", "value": 0.26, "unit": "%"}, {"measurement": "Changes in impurity content or crystallinity", "setting": "[5]; accelerated storage (1-2 weeks) or long-term storage (room temperature, 36 days), HPLC and XRPD", "value": "no significant changes"}, {"measurement": "Hygroscopicity by DVS", "setting": "[6]", "value": 0.49, "unit": "%"}, {"measurement": "Hygroscopicity by DVS", "setting": "[6]; listed as ethanolamine", "value": 0.49, "unit": "%"}, {"measurement": "Hygroscopicity by DVS", "setting": "[6]; listed as ethanolamine salt", "value": "about 0.49%"}]}
